The record followed here is US11993594B2, “IRAK inhibitors and method for making and using” (Rigel Pharmaceuticals, Inc., priority 2016, dated 2024).

Like-named read-outs stand apart in the source and are kept apart here.

For experiment [1], the system named is LPS induced IL-23 (p19/p40) in DC cells. In words: IL23-p19 ELISA, dendritic (DC) cells differentiated from human PBMC, LPS stimulated. The experiment is classed as cell-based. The following applies: LPS 1 μg/ml, 18 hours, 10 pt. As for the experimental part:
Compound Screening Using DC Cells
Human PBMC cells (400 million) obtained from the vendor were transferred into a T-175 flask containing 15 ml RPMI media (10% FBS) and incubate for 2 hours at 37° C. After 2 hours, the media including floating cells was aspirated out carefully and 12 ml of fresh RPMI media (10% FBS) containing GMCSF (100 ng/ml) and IL4 (20 ng/ml) was added, and the flask was kept in a 37° C. incubator for 7 days.
After 3 days, fresh GMCSF (100 ng/ml) and IL4 (20 ng/ml) were added to the flask and the incubation continued. After 7 days, the fully differentiated cells were harvested by spinning down (1200 rpm/5 min) and aspirating the media. The cells were suspended in fresh RPMI media (10% FBS) containing 50 ng/ml IFNγ (1000 U/ml) and then plated (50K/well in 100 μl) onto a white clear bottom 96 well plate and left in a 37° C. incubator for 24 hours.
After 24 hours incubation, 100 μl of RPMI media was added containing 2× concentrated test compound per well to the above cell-culture media (final concentration becomes 1×) and the plates were pre-incubated for 1 hour at 37° C. before stimulating with LPS.
After 1 hour compound pre-incubation, 10 μl per well of 20× concentrated LPS solution in RPMI media was added to give a final concentration of 1 μg/ml. The mixture was shaken and incubated the plates at 37° C. for an additional 18 hours.
155 μl of the supernatant was harvested from each well carefully (without the tip touching the bottom of the well) and to the remaining 50 μl/well of the cell culture plate was added 50 μl of Cell Titer Glo reagent. The mixture was incubated for 1-2 minutes on a shaker and the plate was read for luminescence intensity to determine the compound cytotoxicity. The cell culture supernatant collected above was used to carry out IL23 ELISA (65 μl—Supernatant) and IL10 ELISA (90 μl—Supernatant) as described below.
Human IL-23 (p19/p40) ELISA Protocol (e-Biosciences)
To 10.5 ml PBS add 50 μl of anti-IL23 (p19) was added capture antibody (2.5 μg/ml). The mixture was mixed well and 100 μl of the coating solution was added to each well of the 96 well white plates from Pierce. The wells were covered and incubated overnight at 4° C.
The anti-IL23 (p19)-antibody-coated plates were washed 2× using TBST (use plate washer) and blocked using 200 μl of 0.5% Casein for 1.5 to 2 hours at room temperature with shaking.
The plates were washed 2× using TBST and the supernatant was transferred (65 μl/well) to the above pre-blocked/IL23(p19)-antibody-coated 96 well plate, and incubated at room temperature for 1.5 hours with shaking.
The plates were washed 4× using TBST (plate washer) and 100 μl/well detection antibody solution prepared from 2 μl of biotin labeled anti-IL-12 (p40/p70) antibody in 11 ml 1% BSA/PBS solution (1-5000 dilution) was added. The plates were incubated for 1 hour with shaking at Room temperature.
Again, the plates were washed 4× with TBST and 100 μl of HRP labeled Streptavidin (R&D Systems) solution (10 μl/10 ml 1% BSA solution) was added, and the plates were incubated at room temperature for another 45 minutes with shaking.
After 45 minutes, the plates were washed with TBST 4× and 100 μl/well Super Signal ELISA Pico Chemiluminescent Substrate from Pierce (3.5 ml A+3.5 ml B+3.5 ml MQ water) was added. The plates were shaken for 1-2 minutes then read on a plate reader. […]
(In an ELISA, binding on a coated surface is turned into a signal by an enzyme label.)

Experiment [2] concerns LPS Induced IL23p19 in THP-1 Cells. In words: LPS Induced IL23p19 in THP-1 Cells (with IFNγ Primed) Assay. The experiment is classed as cell-based, human. The conditions noted are these: THP-1 cells primed with IFNγ 50 ng/mL, LPS 1 ug/mL, 18 hours, 10 pt, read-out: IL23-p19 ELISA, THP1-IFNγ, LPS, 10 pt EC50. From the text:
LPS Induced IL23p19 in THP-1 Cells (with IFNγ Primed) Assay
THP-1 Cells (ATCC, Cat #TIB-202), Dimethyl Sulfoxide (DMSO) (Sigma-Aldrich, Cat #D2650), RPMI 1640 (Cellgro, Cat #10-040-CM), Fetal Bovine Serum (Sigma, Cat #F4135), Albumin From Bovine Serum (BSA) (Sigma-Aldrich, Cat #A7906), LPS (Serotype K-235, Sigma, Product Number L 2143), IFNγ (Peprotech, Cat #300-02) Capture antibody: Human IL-23p19 ELISA (e-Bioscience, Cat. #14-7238-85), Detection antibody: Primary Mouse Biotinylated anti-human IL-12(p40/p70) (e-Bioscience, Cat. #13-7129-85), Secondary HRP-conjugated Streptavidin (R&D Systems, Cat #DY998), 1×PBST Washing Buffer (PBS-Tween tablet) (VWR International, Cat #80058-558), ELISA Blocking Buffer (PBS with 1% BSA), ELISA Dilution Buffer (PBS with 1% BSA), 384 Well Flat-Bottom, MaxiSorp Black Immuno Plates (Thermo Scientific, Cat #12-565-346), 384 Well Flat-Bottom, White Tissue Culture Plates (Thermo Scientific, Cat #12-565-343), Super Signal ELISA Pico Chemiluminescent Substrate (Thermo Scientific, Cat #37070), Cell Titer Glo reagent (Promega, Cat #G7573), Positive control, IKK2VI inhibitor (Calbiochem, Cat #401483), AquaMax 4000 plate washer (Molecular Devices), Luminometer, Wallac Victor2 1420 Multilabel Counter.
On day 1, 50K/well THP-1 cells were seeded and primed with IFNγ (50 ng/mL) in 384-well plates for about 18 hours in RPMI media with 10% FBS. On day 2, the compound was serially diluted in DMSO from 5 mM in 3-fold dilutions, and then diluted 1:125 in RPMI media with 10% FBS. 50 μL/well 2× compound was added to 50 μL/well THP-1 cells (with IFNγ primed) in duplicate in 384 well tissue culture plates. The cells were pre-incubated with compound for 1 hour at 37° C., 5% CO2 before addition of 10 μL/well 11×LPS to give a final concentration of 1 ug/mL LPS. Day 3, after stimulation for 18 hours at 37° C., 5% CO2, the assay plate was centrifuged and 70 μL/well supernatant was harvested. IL-23p19 protein in 70 µL/well of supernatant was measured by sandwich ELISA, and 25 μl/well Cell Titer Glo reagent was added to the remaining cells to measure compound toxicity.
Human IL-23p19 Sandwich ELISA:
Maxisorp immuno ELISA plates were pre-coated with 25 μL/well of anti-IL-23p19 capture antibody (2.5 ug/mL) in PBS overnight at room temperature. After washing with 1×PBST, the plates were blocked using 100 μL/well of 1% BSA in PBS for 2 hours at room temperature. The plates were washed three times with 1×PBST and 70 μL/well supernatant were added. The plates were incubated at room temperature for 2 hours with shaking and washed three times with 1×PBST. 25 μL/well of biotin labeled anti-IL-12(p40/p70) detection antibody (100 ng/mL) in PBS with 1% BSA was added and the plates were incubated at room temperature for 2 hours with shaking. After washing three times with 1×PBST, 25 μL/well of streptavidin-HRP (1:200) in PBS with 1% BSA was added and the plates were incubated at room temperature for 20 minutes with shaking. The plates were washed three times with 1×PBST and 25 μL/well of Super Signal ELISA Pico Chemiluminescent Substrate were added. The plates were read with a luminometer, and the chemiluminescence values were entered into Athena (Rigel) for curve fitting, EC50 calculation, and database storage. […]

For `CCO[C@H]1CC[C@H](n2cc(NC(=O)c3coc(-c4cn[nH]c4)n3)c(-c3cnccn3)n2)CC1` [Compound I-1, N-(1-((1r,4r)-4-ethoxycyclohexyl)-3-(pyrazin-2-yl)-1H-pyrazol-4-yl)-2-(1H-pyrazol-4-yl)oxazole-4-carboxamide], the EC50 in experiment [1] (Table 1, IFNγ 50 ng/ml) came out at 0.0334 µM; in experiment [2] (Homo sapiens, Table 1) it was 0.0048 µM.
On to `O=C(Nc1cn([C@H]2CC[C@H](N3CCOCC3)CC2)nc1-c1ncccn1)c1coc(-c2cn[nH]c2)n1` [Compound I-2, N-(1-((1r,4r)-4-morpholinocyclohexyl)-3-(pyrimidin-2-yl)-1H-pyrazol-4-yl)-2-(1H-pyrazol-4-yl)oxazole-4-carboxamide], for which the concentration giving a half-maximal response (EC50) was 0.0842 µM in experiment [1] (Table 1, IFNγ 50 ng/ml); 0.0842 µM in experiment [1] (Table 2, IFNγ 50 ng/ml); 0.0343 µM in experiment [2] (Table 1); 0.0343 µM in experiment [2] (Table 2).
As to `CCO[C@H]1CC[C@H](n2cc(NC(=O)c3coc(-c4cn[nH]c4)n3)c(-c3ncccn3)n2)CC1` [Compound I-3, N-(1-((1r,4r)-4-ethoxycyclohexyl)-3-(pyrimidin-2-yl)-1H-pyrazol-4-yl)-2-(1H-pyrazol-4-yl)oxazole-4-carboxamide], the EC50 in experiment [1] (Table 1, IFNγ 50 ng/ml) was found to be 0.0033 µM; in experiment [1] (Table 2, IFNγ 50 ng/ml), 0.0033 µM; in experiment [2] (Table 1) it was 0.0089 µM; in experiment [2] (Table 2) it was 0.0089 µM.
Take `O=C(Nc1cn([C@H]2CC[C@H](N3CCOCC3)CC2)nc1-c1cccc(C(F)F)n1)c1coc(-c2cn[nH]c2)n1` [Compound I-4, N-(3-(6-(difluoromethyl)pyridin-2-yl)-1-((1r,4r)-4-morpholinocyclohexyl)-1H-pyrazol-4-yl)-2-(1H-pyrazol-4-yl)oxazole-4-carboxamide]: the concentration for a half-maximal effect (EC50) in experiment [1] (Table 1, IFNγ 50 ng/ml) turned out to be 0.0201 µM; in experiment [1] (Table 2, IFNγ 50 ng/ml) it was 0.0201 µM; in experiment [2] (Table 1) it was 0.0063 µM; in experiment [2] (Table 2), 0.0063 µM.
`C[C@@H]1CN(C2CCC(n3cc(NC(=O)c4coc(-c5cn[nH]c5)n4)c(-c4cccc(C(F)F)n4)n3)CC2)C[C@H](C)O1` (stereo partly drawn) [Compound I-5, N-(3-(6-(difluoromethyl)pyridin-2-yl)-1-((1R,4r)-4-((2R,6S)-2,6-dimethylmorpholino)cyclohexyl)-1H-pyrazol-4-yl)-2-(1H-pyrazol-4-yl)oxazole-4-carboxamide]: the EC50 in experiment [1] (Table 1, IFNγ 50 ng/ml) was determined as 0.0102 µM; in experiment [1] (Table 2, IFNγ 50 ng/ml), 0.0102 µM; in experiment [2] (Table 1), 0.012 µM; in experiment [2] (Table 2), 0.012 µM.
Take `CCO[C@H]1CC[C@H](n2cc(NC(=O)c3coc(-c4cn[nH]c4)n3)c(-c3ccncn3)n2)CC1` [Compound I-6, N-(1-((1r,4r)-4-ethoxycyclohexyl)-3-(pyrimidin-4-yl)-1H-pyrazol-4-yl)-2-(1H-pyrazol-4-yl)oxazole-4-carboxamide]: the EC50 in experiment [2] (Table 1) and in experiment [2] (Table 2) was 0.0196 µM each time.
Regarding `O=C(Nc1cn([C@H]2CC[C@H](N3CCOCC3)CC2)nc1-c1nc(C(F)(F)F)ccc1F)c1coc(-c2cn[nH]c2)n1` [Compound I-7, N-(3-(3-fluoro-6-(trifluoromethyl)pyridin-2-yl)-1-((1r,4r)-4-morpholinocyclohexyl)-1H-pyrazol-4-yl)-2-(1H-pyrazol-4-yl)oxazole-4-carboxamide], the EC50 is 0.0757 µM in experiment [1] (Table 1, IFNγ 50 ng/ml); 0.0757 µM in experiment [1] (Table 2, IFNγ 50 ng/ml); 0.028 µM in experiment [2] (Table 1); 0.028 µM in experiment [2] (Table 2).
As for `CCOC1CCC(n2ncc(NC(=O)c3coc(-c4cn[nH]c4)n3)c2-c2nc(F)ccc2F)CC1` [Compound I-14, N-(5-(3,6-difluoropyridin-2-yl)-1-((1r,4R)-4-ethoxycyclohexyl)-1H-pyrazol-4-yl)-2-(1H-pyrazol-4-yl)oxazole-4-carboxamide], the EC50 in experiment [2] (Table 1) and in experiment [2] (Table 2) was 9.12 µM each time.
In the case of `Cn1cc(NC(=O)c2coc(-c3cnn(CC4CC4)c3)n2)c(-c2ccccn2)n1` [Compound I-19, 2-(1-(cyclopropylmethyl)-1H-pyrazol-4-yl)-N-(1-methyl-3-(pyridin-2-yl)-1H-pyrazol-4-yl)oxazole-4-carboxamide], the concentration for a half-maximal effect (EC50) in experiment [2] (Table 3) was 20.3 µM.
On to `O=C(Nc1cn([C@H]2CC[C@H](N3CCOCC3)CC2)nc1-c1nc(F)ccc1F)c1coc(-c2cn[nH]c2)n1` [Compound I-37, N-(3-(3,6-difluoropyridin-2-yl)-1-((1r,4r)-4-morpholinocyclohexyl)-1H-pyrazol-4-yl)-2-(1H-pyrazol-4-yl)oxazole-4-carboxamide], for which the 50% effective concentration (EC50) in experiment [2] (Homo sapiens, Table 1) is 0.0733 µM.

The term EC50 denotes the concentration at which the effect is half-maximal.
